The results in this text go back to patent EP4684784A1, “ANTI-INFLAMMATORY COSMETIC COMPOSITION” (LG Chem, Ltd., priority 2023, dated 2025).

This test deals with Mouse macrophages. As to the kind of experiment: Evaluation of reactive nitrogen species inhibiting ability (nitric oxide production, Griess reagent, LPS-treated macrophages). As to conditions: for Nitrogen oxide concentration, Average / Nitrogen oxide concentration, Once / Nitrogen oxide concentration, Two times / Nitrogen oxide concentration, Three times: LPS 1 µg/ml, cultured 24 hours; for Nitrogen oxide concentration, Average: average of three; for Nitrogen oxide concentration, Once: replicate 1; for Nitrogen oxide concentration, Two times: replicate 2; for Nitrogen oxide concentration, Three times: replicate 3. The format is cell-based. As for the experimental part: Mouse macrophages were divided into 1X10^6 cells in a 6-well plate and cultured for 24 hours, then treated with LPS (Lipopolysaccharide, concentration 1 µg/ml) solution, and treated with the 3-hydroxypropionic acid aqueous solution according to Preparation Example 1 at four concentrations (3HP concentration: 0 wt.%, 0.0125 wt.%, 0.025 wt.%, 0.05 wt.%), and then cultured again for 24 hours. Only the medium was then separated and centrifuged for 10 minutes to collect only the supernatant. The supernatant was mixed with Griess reagent (Sigma-Aldrich) reagent in a 1:1 ratio and reacted at room temperature, and then the absorbance (OD, wavelength 540 nm) was measured using a microplate reader. The measured value was substituted into the regression equation obtained from the standard curve prepared by reacting Griess reagent (Sigma-Aldrich) and NaNO2 in a 1:1 ratio to calculate the amount of nitric oxide(NO) produced. Here, the case in which neither the LPS solution nor the 3HP aqueous solution was treated was performed as a negative control group.

The structures appear in SMILES notation.

Consider `O=C(O)CCO` [Example 3HP, 3-hydroxypropionic acid], for which, where the note is “3HP concentration 0.0125 wt.%”, the “Nitrogen oxide concentration, Average” value is on record as 64.949 µM; the “Nitrogen oxide concentration, Once” value is 63.956 µM; the “Nitrogen oxide concentration, Two times” value was 64.800 µM; the “Nitrogen oxide concentration, Three times” value stood at 66.093 µM. Under “3HP concentration 0.025 wt.%”, the “Nitrogen oxide concentration, Average” value worked out at 64.774 µM; the “Nitrogen oxide concentration, Once” value was 63.138 µM; the “Nitrogen oxide concentration, Two times” value is 65.222 µM; the “Nitrogen oxide concentration, Three times” value is given as 65.961 µM. Moreover, for the setting “3HP concentration 0.05 wt.%”, the “Nitrogen oxide concentration, Average” value is reported as 56.630 µM; the “Nitrogen oxide concentration, Once” value was found to be 56.146 µM; the “Nitrogen oxide concentration, Two times” value was 56.357 µM; the “Nitrogen oxide concentration, Three times” value amounted to 57.386 µM. Under “under the treatment concentrations 0.0125 to 0.05 wt.%, result in words”, the “inhibiting the production of reactive nitrogen species” value is “effect of inhibiting the production of reactive nitrogen species was exhibited”.
